Test results as given in ChEMBL document CHEMBL1124634, “Synthesis and antirhinovirus activity of 6-(dimethylamino)-2-(trifluoromethyl)-9-(substituted benzyl)-9H-purines” (J Med Chem, 1989).

test system: Human rhinovirus sp.; test: Antiviral activity against rhinoviral-1B serotype in a plaque inhibition assay using monolayers of M-HeLa cells; assay type: functional, organism-based

Row | SMILES | IC50 [µM]
1 | CN(C)c1cc(Cn2cnc3c(N(C)C)nc(C(F)(F)F)nc32)ccc1Cl | > 0.2
2 | CN(C)c1cccc(Cn2cnc3c(N(C)C)nc(C(F)(F)F)nc32)c1 | 0.25
3 | CN(C)c1nc(C(F)(F)F)nc2c1ncn2Cc1ccc(NC=O)cc1 | 0.18
4 | COc1cc(C)ccc1Cn1cnc2c(N(C)C)nc(C(F)(F)F)nc21 | 70
5 | COc1cc(Cn2cnc3c(N(C)C)nc(C(F)(F)F)nc32)ccc1Cl | 0.68
6 | CN(C)c1nc(C(F)(F)F)nc2c1ncn2Cc1cccc(OCc2ccccc2)c1 | 1.1
7 | CN(C)c1nc(C(F)(F)F)nc2c1ncn2Cc1cccc(N)c1 | 0.3
8 | CN(C)c1nc(C(F)(F)F)nc2c1ncn2Cc1ccc(Cl)cc1NC=O | 6.9
9 | CN(C)c1nc(C(F)(F)F)nc2c1ncn2Cc1ccc(OCc2ccccc2)cc1 | 4.4
10 | CCCCc1ccc(Cn2cnc3c(N(C)C)nc(C(F)(F)F)nc32)cc1 | 0.78
11 | CN(C)c1nc(C(F)(F)F)nc2c1ncn2Cc1ccc(N)cc1 | 0.13
12 | Cc1cc(C)cc(Cn2cnc3c(N(C)C)nc(C(F)(F)F)nc32)c1 | > 1.3
